According to ChEMBL document CHEMBL1142021, “Aglycon specificity profiling of alpha-glucosidases using synthetic probes” (Bioorg Med Chem Lett, 2005):

Molecular target: T1, Alpha-glucosidase (Apis mellifera) (UniProt Q17058)
T1 sequence (whole entry): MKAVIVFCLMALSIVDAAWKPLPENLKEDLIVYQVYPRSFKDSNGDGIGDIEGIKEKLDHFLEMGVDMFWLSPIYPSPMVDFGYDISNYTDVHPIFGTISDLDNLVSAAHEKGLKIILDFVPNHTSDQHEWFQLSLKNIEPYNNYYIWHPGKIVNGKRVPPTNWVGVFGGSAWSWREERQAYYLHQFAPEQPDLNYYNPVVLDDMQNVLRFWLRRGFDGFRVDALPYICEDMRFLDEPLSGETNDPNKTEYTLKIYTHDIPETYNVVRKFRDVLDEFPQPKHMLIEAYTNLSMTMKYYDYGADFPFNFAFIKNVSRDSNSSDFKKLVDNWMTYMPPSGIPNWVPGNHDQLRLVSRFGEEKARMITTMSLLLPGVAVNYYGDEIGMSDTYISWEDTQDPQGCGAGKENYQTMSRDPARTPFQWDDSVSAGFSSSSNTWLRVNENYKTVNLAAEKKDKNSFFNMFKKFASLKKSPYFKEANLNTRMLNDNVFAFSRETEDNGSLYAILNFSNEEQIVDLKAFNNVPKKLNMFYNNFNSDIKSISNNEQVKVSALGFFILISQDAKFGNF
Assay: Inhibition of family 13 alpha-glucosidase isoform II from honey bee at 1 umol/mL

SMILES | inhibition [%]
O=C(CCCCCO)NCC1OC(CO)C(O)C(O)C1O (stereo not drawn) | 4.4
O=C(CCCCO)NCC1OC(CO)C(O)C(O)C1O (stereo not drawn) | 21.4
O=C(CCCO)NCC1OC(CO)C(O)C(O)C1O (stereo not drawn) | 3.6

Results, then the compound that gave them:

inhibition [%] | SMILES
< 1 | CC(C)(C)C(=O)NCC1OC(CO)C(O)C(O)C1O (stereo not drawn)
< 1 | CC(=O)NCC1OC(CO)C(O)C(O)C1O (stereo not drawn)
4.4 | O=C(CO)NCC1OC(CO)C(O)C(O)C1O (stereo not drawn)
2.7 | O=C(CCO)NCC1OC(CO)C(O)C(O)C1O (stereo not drawn)

Molecular target: T2, Alpha-glucosidase (Oryza sativa Japonica Group) (UniProt Q9LGC6)
T2 sequence (whole entry): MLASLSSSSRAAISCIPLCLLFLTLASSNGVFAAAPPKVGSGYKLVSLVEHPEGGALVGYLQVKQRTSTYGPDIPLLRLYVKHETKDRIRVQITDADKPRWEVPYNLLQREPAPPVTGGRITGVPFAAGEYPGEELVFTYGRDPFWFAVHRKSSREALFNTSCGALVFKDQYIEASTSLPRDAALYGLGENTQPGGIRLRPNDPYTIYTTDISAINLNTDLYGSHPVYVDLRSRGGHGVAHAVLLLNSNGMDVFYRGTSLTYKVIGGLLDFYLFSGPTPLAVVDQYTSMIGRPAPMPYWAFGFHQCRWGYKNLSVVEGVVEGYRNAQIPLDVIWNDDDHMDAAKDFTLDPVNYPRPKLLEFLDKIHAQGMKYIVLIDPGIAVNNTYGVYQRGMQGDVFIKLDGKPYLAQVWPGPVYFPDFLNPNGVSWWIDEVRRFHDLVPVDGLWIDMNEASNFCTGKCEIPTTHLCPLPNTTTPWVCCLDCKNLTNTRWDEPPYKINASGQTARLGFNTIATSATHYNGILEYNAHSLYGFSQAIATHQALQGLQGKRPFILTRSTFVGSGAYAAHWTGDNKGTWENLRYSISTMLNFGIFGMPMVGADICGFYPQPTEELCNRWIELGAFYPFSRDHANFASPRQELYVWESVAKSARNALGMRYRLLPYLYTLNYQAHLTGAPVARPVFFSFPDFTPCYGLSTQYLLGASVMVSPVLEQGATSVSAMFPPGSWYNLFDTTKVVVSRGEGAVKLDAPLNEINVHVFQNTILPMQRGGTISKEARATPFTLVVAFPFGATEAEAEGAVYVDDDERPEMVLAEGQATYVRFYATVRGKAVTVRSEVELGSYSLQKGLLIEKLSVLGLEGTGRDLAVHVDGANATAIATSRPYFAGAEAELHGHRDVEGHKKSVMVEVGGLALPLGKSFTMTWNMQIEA
Assay: Inhibition of Rice glucosidase (of family 31 alpha-glucosidase) at 1 umol/mL

SMILES | inhibition [%]
O=C(CCCCCO)NCC1OC(CO)C(O)C(O)C1O (stereo not drawn) | 26
O=C(NCC1OC(CO)C(O)C(O)C1O)c1ccccc1 (stereo not drawn) | 16
O=C(CCCCO)NCC1OC(CO)C(O)C(O)C1O (stereo not drawn) | 18.3
O=C(CCCO)NCC1OC(CO)C(O)C(O)C1O (stereo not drawn) | 7.6

The remaining lines, values ahead:

inhibition [%] | SMILES
3.8 | CC(C)(C)C(=O)NCC1OC(CO)C(O)C(O)C1O (stereo not drawn)
21.8 | CC(=O)NCC1OC(CO)C(O)C(O)C1O (stereo not drawn)
10.7 | O=C(CO)NCC1OC(CO)C(O)C(O)C1O (stereo not drawn)
8.5 | O=C(CCO)NCC1OC(CO)C(O)C(O)C1O (stereo not drawn)

Tested on: Saccharomyces cerevisiae
Assay: Inhibition of Saccharomyces cerevisiae glucosidase (of family 13 alpha-glucosidase) by compound with concentration 1 umol/mI

SMILES | inhibition [%]
O=C(CCCCCO)NCC1OC(CO)C(O)C(O)C1O (stereo not drawn) | < 1
O=C(NCC1OC(CO)C(O)C(O)C1O)c1ccccc1 (stereo not drawn) | 67.4
O=C(CCCCO)NCC1OC(CO)C(O)C(O)C1O (stereo not drawn) | 100
O=C(CCCO)NCC1OC(CO)C(O)C(O)C1O (stereo not drawn) | < 1

The remaining lines, values ahead:

inhibition [%] | SMILES
6.1 | CC(C)(C)C(=O)NCC1OC(CO)C(O)C(O)C1O (stereo not drawn)
< 1 | CC(=O)NCC1OC(CO)C(O)C(O)C1O (stereo not drawn)
< 1 | O=C(CO)NCC1OC(CO)C(O)C(O)C1O (stereo not drawn)
21.1 | O=C(CCO)NCC1OC(CO)C(O)C(O)C1O (stereo not drawn)

Molecular target: T3, Alpha-glucosidase (Geobacillus stearothermophilus) (UniProt P94451)
T3 sequence (whole entry): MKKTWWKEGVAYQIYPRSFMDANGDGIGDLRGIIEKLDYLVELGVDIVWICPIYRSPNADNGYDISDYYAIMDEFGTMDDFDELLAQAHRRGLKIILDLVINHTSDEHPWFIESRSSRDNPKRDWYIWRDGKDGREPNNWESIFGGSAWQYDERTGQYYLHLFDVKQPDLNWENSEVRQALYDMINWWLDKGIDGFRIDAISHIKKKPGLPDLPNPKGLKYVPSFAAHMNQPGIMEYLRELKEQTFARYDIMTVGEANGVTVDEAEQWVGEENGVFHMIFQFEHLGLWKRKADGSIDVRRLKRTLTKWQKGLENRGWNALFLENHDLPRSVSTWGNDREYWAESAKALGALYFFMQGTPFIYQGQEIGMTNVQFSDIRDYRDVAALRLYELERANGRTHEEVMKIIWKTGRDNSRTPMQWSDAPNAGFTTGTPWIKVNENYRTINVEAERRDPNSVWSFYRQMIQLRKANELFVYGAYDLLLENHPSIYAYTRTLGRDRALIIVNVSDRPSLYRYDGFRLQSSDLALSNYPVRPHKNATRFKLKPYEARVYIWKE
Assay: Inhibition of Bacillus stearothermophilus glucosidase (of family 13 alpha-glucosidase) at 1 umol/mL

SMILES | inhibition [%]
O=C(CCCCCO)NCC1OC(CO)C(O)C(O)C1O (stereo not drawn) | < 1
O=C(NCC1OC(CO)C(O)C(O)C1O)c1ccccc1 (stereo not drawn) | < 1
O=C(CCCCO)NCC1OC(CO)C(O)C(O)C1O (stereo not drawn) | 100
O=C(CCCO)NCC1OC(CO)C(O)C(O)C1O (stereo not drawn) | < 1

Results, then the compound that gave them:

inhibition [%] | SMILES
< 1 | CC(C)(C)C(=O)NCC1OC(CO)C(O)C(O)C1O (stereo not drawn)
< 1 | CC(=O)NCC1OC(CO)C(O)C(O)C1O (stereo not drawn)
< 1 | O=C(CO)NCC1OC(CO)C(O)C(O)C1O (stereo not drawn)
< 1 | O=C(CCO)NCC1OC(CO)C(O)C(O)C1O (stereo not drawn)

Molecular target: T4, Cytosolic beta-glucosidase (Homo sapiens) (UniProt Q9H227)
T4 sequence (whole entry): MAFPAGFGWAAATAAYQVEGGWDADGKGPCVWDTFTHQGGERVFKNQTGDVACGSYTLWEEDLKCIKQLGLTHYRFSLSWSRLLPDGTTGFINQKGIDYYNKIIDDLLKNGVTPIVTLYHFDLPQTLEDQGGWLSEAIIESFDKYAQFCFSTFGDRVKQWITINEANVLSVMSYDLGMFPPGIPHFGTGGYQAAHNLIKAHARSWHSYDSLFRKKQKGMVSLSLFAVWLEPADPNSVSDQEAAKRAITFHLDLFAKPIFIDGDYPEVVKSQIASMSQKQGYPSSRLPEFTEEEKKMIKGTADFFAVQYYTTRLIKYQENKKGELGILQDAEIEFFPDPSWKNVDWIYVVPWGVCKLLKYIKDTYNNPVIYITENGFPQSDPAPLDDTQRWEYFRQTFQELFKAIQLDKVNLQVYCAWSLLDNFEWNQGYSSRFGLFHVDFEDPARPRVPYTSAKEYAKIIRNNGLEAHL
Assay: Inhibition of beta-Glucosidase at 2 umol/mL

SMILES | inhibition [%]
O=C(CCCCCO)NCC1OC(CO)C(O)C(O)C1O (stereo not drawn) | < 1
O=C(CCCCO)NCC1OC(CO)C(O)C(O)C1O (stereo not drawn) | < 1
O=C(CCCO)NCC1OC(CO)C(O)C(O)C1O (stereo not drawn) | < 1

Second part, the compound after the results:

inhibition [%] | SMILES
< 1 | CC(C)(C)C(=O)NCC1OC(CO)C(O)C(O)C1O (stereo not drawn)
< 1 | CC(=O)NCC1OC(CO)C(O)C(O)C1O (stereo not drawn)
< 1 | O=C(CO)NCC1OC(CO)C(O)C(O)C1O (stereo not drawn)
< 1 | O=C(CCO)NCC1OC(CO)C(O)C(O)C1O (stereo not drawn)
